These results are taken from PubChem BioAssay AID1259407 (Chemical Carcinogenesis Research Information System (CCRIS), 2018).

Active and inactive are the calls of the source. No rule for the calls is given here.

The subject of this data set is CCRIS mutagenicity, Ames/micronucleus/aberration tests. As to the kind of experiment: CCRIS mutagenicity studies.
The mark [1] stands for this setting: Test System: AMES SALMONELLA TYPHIMURIUM, Strain/Indicator: TA98, Metabolic Activation: NONE, Method: PREINCUBATION
[2] abbreviates: Test System: AMES SALMONELLA TYPHIMURIUM, Strain/Indicator: TA98, Metabolic Activation: NONE, Method: STANDARD PLATE.
The mark [3] stands for this setting: Test System: AMES SALMONELLA TYPHIMURIUM, Strain/Indicator: TA100, Metabolic Activation: NONE, Method: PREINCUBATION
Setting [4] is: Test System: AMES SALMONELLA TYPHIMURIUM, Strain/Indicator: TA1535, Metabolic Activation: NONE, Method: PREINCUBATION
Where [5] appears, read: Test System: AMES SALMONELLA TYPHIMURIUM, Strain/Indicator: TA1537, Metabolic Activation: NONE, Method: PREINCUBATION

In the case of `CN1C(=O)CN=C(c2ccccc2)c2cc(Cl)ccc21`, the mutagenic call is “active; positive” (End Point: IN VITRO MICRONUCLEUS, Test System: V79 CELLS, Metabolic Activation: NONE); “inactive; negative” (End Point: IN VIVO CHROMOSOMAL ABERRATIONS, Test System: PERIPHERAL BLOOD LYMPHOCYTES, Species: HUMAN, Strain/Sex: MALE, FEMALE, Route: IV); “inactive; negative” (Test System: AMES SALMONELLA TYPHIMURIUM, Strain/Indicator: TA97, Metabolic Activation: HAMSTER, LIVER, S-9, AROCLOR 1254 (10 OR 30%), Method: PREINCUBATION); “inactive; negative” (Test System: AMES SALMONELLA TYPHIMURIUM, Strain/Indicator: TA97, Metabolic Activation: NONE, Method: PREINCUBATION); “inactive; negative” (Test System: AMES SALMONELLA TYPHIMURIUM, Strain/Indicator: TA97, Metabolic Activation: RAT, LIVER, S-9, AROCLOR 1254 (10 OR 30%), Method: PREINCUBATION); “inactive; negative” (Test System: AMES SALMONELLA TYPHIMURIUM, Strain/Indicator: TA98, Metabolic Activation: HAMSTER, LIVER, S-9, AROCLOR 1254 (10 OR 30%), Method: PREINCUBATION). For the same molecule, the mutagenic call reads like this: under setting [1], “inactive; negative”; under setting [2], “inactive; negative”; (Test System: AMES SALMONELLA TYPHIMURIUM, Strain/Indicator: TA98, Metabolic Activation: RAT, LIVER, S-9, AROCLOR 1254 (10 OR 30%), Method: PREINCUBATION) “inactive; negative”; (Test System: AMES SALMONELLA TYPHIMURIUM, Strain/Indicator: TA98, Metabolic Activation: RAT, LIVER, S-9, AROCLOR 1254, Method: STANDARD PLATE) “inactive; negative”; (Test System: AMES SALMONELLA TYPHIMURIUM, Strain/Indicator: TA100, Metabolic Activation: HAMSTER, LIVER, S-9, AROCLOR 1254 (10 OR 30%), Method: PREINCUBATION) “inactive; negative”; under setting [3], “inactive; negative”. In addition, the mutagenic call is “inactive; negative” (Test System: AMES SALMONELLA TYPHIMURIUM, Strain/Indicator: TA100, Metabolic Activation: NONE, Method: STANDARD PLATE); “inactive; negative” (Test System: AMES SALMONELLA TYPHIMURIUM, Strain/Indicator: TA100, Metabolic Activation: RAT, LIVER, S-9, AROCLOR 1254 (10 OR 30%), Method: PREINCUBATION); “inactive; negative” (Test System: AMES SALMONELLA TYPHIMURIUM, Strain/Indicator: TA100, Metabolic Activation: RAT, LIVER, S-9, AROCLOR 1254, Method: STANDARD PLATE); “inactive; negative” (Test System: AMES SALMONELLA TYPHIMURIUM, Strain/Indicator: TA1535, Metabolic Activation: HAMSTER, LIVER, S-9, AROCLOR 1254 (10 OR 30%), Method: PREINCUBATION); “inactive; negative” under setting [4]; “inactive; negative” (Test System: AMES SALMONELLA TYPHIMURIUM, Strain/Indicator: TA1535, Metabolic Activation: NONE, Method: STANDARD PLATE). For the same molecule, the mutagenic call runs as follows: (Test System: AMES SALMONELLA TYPHIMURIUM, Strain/Indicator: TA1535, Metabolic Activation: RAT, LIVER, S-9, AROCLOR 1254 (10 OR 30%), Method: PREINCUBATION) “inactive; negative”; (Test System: AMES SALMONELLA TYPHIMURIUM, Strain/Indicator: TA1535, Metabolic Activation: RAT, LIVER, S-9, AROCLOR 1254, Method: STANDARD PLATE) “inactive; negative”; (Test System: AMES SALMONELLA TYPHIMURIUM, Strain/Indicator: TA1537, Metabolic Activation: HAMSTER, LIVER, S-9, AROCLOR 1254 (30%), Method: PREINCUBATION) “inactive; negative”; under setting [5], “inactive; negative”; (Test System: AMES SALMONELLA TYPHIMURIUM, Strain/Indicator: TA1537, Metabolic Activation: NONE, Method: STANDARD PLATE) “inactive; negative”; (Test System: AMES SALMONELLA TYPHIMURIUM, Strain/Indicator: TA1537, Metabolic Activation: RAT, LIVER, S-9, AROCLOR 1254 (30%), Method: PREINCUBATION) “inactive; negative”. The mutagenic call (Test System: AMES SALMONELLA TYPHIMURIUM, Strain/Indicator: TA1537, Metabolic Activation: RAT, LIVER, S-9, AROCLOR 1254, Method: STANDARD PLATE) was “inactive; negative”.
On to `Oc1cc(Cl)ccc1Cl`, for which the mutagenic call reads like this: (Test System: AMES SALMONELLA TYPHIMURIUM, Strain/Indicator: TA98, Metabolic Activation: HAMSTER, LIVER, S-9, AROCLOR 1254, Method: PREINCUBATION) “inactive; negative”; under setting [1], “inactive; negative”; (Test System: AMES SALMONELLA TYPHIMURIUM, Strain/Indicator: TA98, Metabolic Activation: RAT, LIVER, S-9, AROCLOR 1254, Method: PREINCUBATION) “inactive; negative”; (Test System: AMES SALMONELLA TYPHIMURIUM, Strain/Indicator: TA100, Metabolic Activation: HAMSTER, LIVER, S-9, AROCLOR 1254, Method: PREINCUBATION) “inactive; negative”; under setting [3], “inactive; negative”; (Test System: AMES SALMONELLA TYPHIMURIUM, Strain/Indicator: TA100, Metabolic Activation: RAT, LIVER, S-9, AROCLOR 1254, Method: PREINCUBATION) “inactive; negative”. Further, the mutagenic call is, setting by setting: (Test System: AMES SALMONELLA TYPHIMURIUM, Strain/Indicator: TA1535, Metabolic Activation: HAMSTER, LIVER, S-9, AROCLOR 1254, Method: PREINCUBATION) “inactive; negative”; under setting [4], “inactive; negative”; (Test System: AMES SALMONELLA TYPHIMURIUM, Strain/Indicator: TA1535, Metabolic Activation: RAT, LIVER, S-9, AROCLOR 1254, Method: PREINCUBATION) “inactive; negative”; (Test System: AMES SALMONELLA TYPHIMURIUM, Strain/Indicator: TA1537, Metabolic Activation: HAMSTER, LIVER, S-9, AROCLOR 1254, Method: PREINCUBATION) “inactive; negative”; under setting [5], “inactive; negative”; (Test System: AMES SALMONELLA TYPHIMURIUM, Strain/Indicator: TA1537, Metabolic Activation: RAT, LIVER, S-9, AROCLOR 1254, Method: PREINCUBATION) “inactive; negative”. Besides, the mutagenic call is “inactive; negative” (Test System: CHINESE HAMSTER OVARY CELLS, Strain/Indicator: CHO-K1-BH4 (HPRT)/6-THIOGUANINE, Metabolic Activation: NONE, Method: PREINCUBATION) and “inactive; negative” (Test System: CHINESE HAMSTER OVARY CELLS, Strain/Indicator: CHO-K1-BH4 (HPRT)/6-THIOGUANINE, Metabolic Activation: S-9, Method: PREINCUBATION).
Turning to `Cn1c(N=[N+]=[N-])nc2ccc3ncccc3c21`, the mutagenic call was “active; positive” (Test System: AMES SALMONELLA TYPHIMURIUM, Strain/Indicator: TA98(1,8-DNP6), Metabolic Activation: NONE, Method: STANDARD PLATE) and “active; positive” under setting [2].
